Results on one compound are retold here after US20200362305A1, “EFFICIENT INFECTION OF PRIMARY KER[…] HPV16” (Board of Supervisors of Louisiana State University and …, priority 2018, published 2020).

This test has as its system HPV16. Nature of the test: HPV16 infection of primary keratinocytes by ECM-to-cell transfer, cells grown with or without Y-27632. The test is classed as cell-based, human. As to conditions: primary cells grown in the presence or absence of the Rho kinase inhibitor Y-27632. The protocol:
Human embryonic kidney 293TT and HeLa cells were obtained from John Schiller and Daniel DiMaio, respectively. They were cultured in DMEM supplemented with 10% FBS, non-essential amino acids, antibiotics, and L-Glutamax. Spontaneously immortalized human keratinocytes HaCaT cells were purchased from the American Type Culture Collection (ATCC) and grown in low glucose DMEM containing 5% FBS and antibiotics. Human foreskin keratinocytes (HFKs) were derived from neonatal human foreskin epithelia and maintained in E medium containing mouse epidermal growth factor (EGF) and mitomycin-treated mouse 3T3 J2 fibroblasts. Pooled primary epithelial keratinocytes were also purchased from the ATCC (PCS-200-010) and used in some experiments. In early experiments where indicated, the inventors maintained and infected primary keratinocytes in the presence of the Rho kinase inhibitor (ROCK) Y-27632, which was reported to increase their lifespan. However, the ROCK inhibitor was excluded prior and during experiments involving long term culturing of infected primary cells. Stable cell lines containing HPV16 episomes were created by co-transfection of pEGFP-N1-HPV16 containing the HPV16 genome (W12 strain) with an expression vector for Cre recombinase and a Neomycin resistance plasmid. […]

Regarding `C[C@@H](N)[C@H]1CC[C@H](C(=O)Nc2ccncc2)CC1` [Y-27632], the infection efficiency result was “no significant difference”.
